# Measurements from ChEMBL document CHEMBL4295262, “Evaluation of the utility of stem-cell derived cardiomyocytes for drug proarrhythmic potential” (2019).
# Assays:
# Details in all cases: human, ipsc-cm
# [1] = (§1) Electrical activity assay on cell lines treated with a given drug. DMSO was used as a vehicle and a control, unblinded dofetilide was used as a control.; assay type: cell-based; set-up: APDc: unit not given here
# [2] = as §1
# [3] = as §1; remark: listed apart in the source
# [4] = as §1; assay type: ADME, cell-based; set-up: FPDc: unit not given here
# [5] = as §1; remark: listed apart in the source
# [6] = as §1; remark: listed apart in the source
# [7] = as §1; assay type: ADME, cell-based
# [8] = 0.0001 µM, concentration (um) 0.0001 uM
# [9] = 0.001 µM, concentration (um) 0.001 uM
# [10] = 0.01 µM, concentration (um) 0.01 uM
# [11] = 0.1 µM, concentration (um) 0.1 uM
# [12] = 0.003 µM, concentration (um) 0.003 uM
# [13] = 0.03 µM, concentration (um) 0.03 uM
# [14] = 0.3 µM, concentration (um) 0.3 uM
smiles,measurement,setting,value
COc1ccc(CCN2CCC(Nc3nc4ccccc4n3Cc3ccc(F)cc3)CC2)cc1 [ASTEMIZOLE],APDc,[1]; [8],54.17
same,FPD measurement,[1]; [8],54.17 FPDc
same,APDc,[1]; [9],53.88
same,FPD measurement,[1]; [9],53.88 FPDc
same,APDc,[1]; [10],57.03
same,FPD measurement,[1]; [10],57.03 FPDc
same,APDc,[1]; [11],77.9
same,FPD measurement,[1]; [11],77.9 FPDc
same,FPD measurement,[2]; 0.0001 µM,55.11 FPDc
same,FPDc,[2]; 0.0001 µM,55.11
same,FPD measurement,[2]; 0.001 µM,55.33 FPDc
same,FPDc,[2]; 0.001 µM,55.33
same,FPD measurement,[2]; 0.01 µM,57.8 FPDc
same,FPDc,[2]; 0.01 µM,57.8
same,FPD measurement,[2]; 0.1 µM,75.34 FPDc
same,FPDc,[2]; 0.1 µM,75.34
same,FPD measurement,[3]; 0.0001 µM,1 Values Out Of 1 Were Excluded Due To Quiescence Or 0 Fpdc
same,FPDc,[3]; 0.0001 µM,1 Values Out Of 1 Were Excluded Due To Quiescence Or 0 Fpdc
same,FPD measurement,[3]; 0.001 µM,1 Values Out Of 1 Were Excluded Due To Quiescence Or 0 Fpdc
same,FPDc,[3]; 0.001 µM,1 Values Out Of 1 Were Excluded Due To Quiescence Or 0 Fpdc
same,FPD measurement,[3]; 0.01 µM,1 Values Out Of 1 Were Excluded Due To Quiescence Or 0 Fpdc
same,FPDc,[3]; 0.01 µM,1 Values Out Of 1 Were Excluded Due To Quiescence Or 0 Fpdc
same,FPD measurement,[3]; 0.1 µM,1 Values Out Of 1 Were Excluded Due To Quiescence Or 0 Fpdc
same,FPDc,[3]; 0.1 µM,1 Values Out Of 1 Were Excluded Due To Quiescence Or 0 Fpdc
same,FPD measurement,[4]; [8],5 Values Out Of 5 Were Excluded Due To Quiescence Or 0 Apdc
same,FPDc,[4]; [8],53.45
same,FPD measurement,[4]; [9],5 Values Out Of 5 Were Excluded Due To Quiescence Or 0 Apdc
same,FPDc,[4]; [9],49.25
same,FPD measurement,[4]; [10],5 Values Out Of 5 Were Excluded Due To Quiescence Or 0 Apdc
same,FPDc,[4]; [10],53.23
same,FPD measurement,[4]; [11],5 Values Out Of 5 Were Excluded Due To Quiescence Or 0 Apdc
same,FPDc,[4]; [11],40.28
O=c1[nH]c2ccccc2n1CCCN1CCC(n2c(=O)[nH]c3cc(Cl)ccc32)CC1 [DOMPERIDONE],FPDc,[5]; 0.003 µM,73.87
same,FPDc,[5]; 0.03 µM,88.38
same,FPDc,[5]; 0.3 µM,More Than Half The Wells Had A Quiescence Event Or Fpdc Readings Of 0
same,FPD measurement,[5]; 3 µM,More Than Half The Wells Had A Quiescence Event Or Apdc Readings Of 0
same,FPDc,[5]; 3 µM,More Than Half The Wells Had A Quiescence Event Or Fpdc Readings Of 0
same,APDc,[6]; 0.003 µM,72.4
same,FPD measurement,[6]; 0.003 µM,72.4 FPDc
same,APDc,[6]; 0.03 µM,67
same,FPD measurement,[6]; 0.03 µM,67 FPDc
same,APDc,[6]; 0.3 µM,78.3
same,FPD measurement,[6]; 0.3 µM,78.3 FPDc
same,APDc,[6]; 3 µM,More Than Half The Wells Had A Quiescence Event Or Apdc Readings Of 0
same,FPD measurement,[6]; 3 µM,More Than Half The Wells Had A Quiescence Event Or Apdc Readings Of 0
same,FPD measurement,[7]; [12],47.3 FPDc
same,FPDc,[7]; [12],6 Values Out Of 6 Were Excluded Due To Quiescence Or 0 Fpdc
same,FPD measurement,[7]; [13],85.58 FPDc
same,FPDc,[7]; [13],6 Values Out Of 6 Were Excluded Due To Quiescence Or 0 Fpdc
same,FPD measurement,[7]; [14],42.56 FPDc
same,FPDc,[7]; [14],6 Values Out Of 6 Were Excluded Due To Quiescence Or 0 Fpdc
same,FPDc,"[7]; 3 µM, concentration (um) 3 uM",6 Values Out Of 6 Were Excluded Due To Quiescence Or 0 Fpdc
